Results published in ChEMBL document CHEMBL1201862, “PubChem BioAssay data set” (2004).
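96-well plates; 48 h exposure; 5 concentrations. Endpoints by linear interpolation between flanking doses. Not reached: highest tested concentration assigned. The concentration for 50% growth inhibition is given as GI50.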 Calls of active or inactive are those of the source. No stated cut-off is given here; in the data, active = GI50 up to about 1.1 µM and inactive = higher.

Experiments:
Assay in all cases: growth of human tumour cells (NCI), 48 h
[1] = tested on: 786-0
[2] = tested on: KM12
[3] = tested on: SNB-75
[4] = tested on: SK-OV-3
[5] = tested on: UO-31
[6] = tested on: TK-10
[7] = tested on: SK-MEL-28
[8] = tested on: LOX IMVI
[9] = tested on: NCI/ADR-RES
[10] = tested on: OVCAR-4
[11] = tested on: MDA-N
[12] = tested on: SF-295
[13] = tested on: HOP-62
[14] = tested on: HCC 2998
[15] = tested on: A498
[16] = tested on: OVCAR-8
[17] = tested on: NCI-H23
[18] = tested on: NCI-H460
[19] = tested on: U-251
[20] = tested on: SNB-19
[21] = tested on: RPMI-8226
[22] = tested on: OVCAR-3
[23] = tested on: MOLT-4
[24] = tested on: SK-MEL-5
[25] = tested on: SN12C
[26] = tested on: SK-MEL-2
[27] = tested on: M14
[28] = tested on: UACC-257
[29] = tested on: Malme-3M
[30] = tested on: COLO 205
[31] = tested on: SF-268
[32] = tested on: SF-539
[33] = tested on: A549
[34] = tested on: MDA-MB-435
[35] = tested on: EKVX
[36] = tested on: CAKI-1
[37] = tested on: MDA-MB-231
[38] = tested on: UACC-62
[39] = tested on: HCT-116
[40] = tested on: HCT-15
[41] = tested on: MCF7
[42] = tested on: NCI-H226
[43] = tested on: Hs-578T
[44] = tested on: PC-3
[45] = tested on: HOP-92
[46] = tested on: CCRF-CEM
[47] = tested on: SR
[48] = tested on: HL-60
[49] = tested on: RXF 393
[50] = tested on: ACHN
[51] = tested on: BT-549
[52] = tested on: K562
[53] = tested on: T47D
[54] = tested on: NCI-H522
[55] = tested on: IGROV-1
[56] = tested on: HT-29
[57] = tested on: OVCAR-5
[58] = tested on: SW-620
[59] = tested on: DU-145

Which results are given for COc1cccc([C@H]2C/C(=N\NC(=O)C(=O)N[C@@H](C)c3ccccc3)c3ccccc3N2)c1?
GI50 [1]: 0.0374 µM (active); GI50 [2]: < 0.01 µM (active); GI50 [3]: 8.53 µM (inactive); GI50 [4]: 0.0491 µM (active); GI50 [5]: 0.0378 µM (active); GI50 [6]: > 10 µM (inactive); GI50 [7]: 0.0673 µM (active); GI50 [8]: 0.0721 µM (active); GI50 [9]: 7.05 µM (inactive); GI50 [10]: 7.48 µM (inactive); GI50 [11]: < 0.01 µM (active); GI50 [12]: < 0.01 µM (active); GI50 [13]: 4.51 µM (inactive); GI50 [14]: 0.017 µM (active); GI50 [15]: 0.0417 µM (active); GI50 [16]: 6.41 µM (inactive); GI50 [17]: > 10 µM (inactive); GI50 [18]: > 10 µM (inactive); GI50 [19]: 7.67 µM (inactive); GI50 [20]: 6.52 µM (inactive); GI50 [21]: < 0.01 µM (active); GI50 [22]: 0.0181 µM (active); GI50 [23]: > 10 µM (inactive); GI50 [24]: < 0.01 µM (active); GI50 [25]: 0.0184 µM (active); GI50 [26]: 3.69 µM (inactive); GI50 [27]: 0.0249 µM (active); GI50 [28]: 0.0361 µM (active); GI50 [29]: > 10 µM (inactive); GI50 [30]: 0.0167 µM (active); GI50 [31]: 7.05 µM (inactive); GI50 [32]: 7.82 µM (inactive); GI50 [33]: 6.15 µM (inactive); GI50 [34]: < 0.01 µM (active); GI50 [35]: 0.0927 µM (active); GI50 [36]: 0.0354 µM (active); GI50 [37]: 0.0923 µM (active); GI50 [38]: < 0.01 µM (active); GI50 [39]: 0.0209 µM (active); GI50 [40]: < 0.01 µM; GI50 [41]: 9.38 µM (inactive); GI50 [42]: 0.0314 µM (active); GI50 [43]: 0.0237 µM (active); GI50 [44]: 0.0263 µM (active); GI50 [45]: 7.5 µM (inactive); GI50 [46]: 0.0188 µM (active); GI50 [47]: > 10 µM (inactive); GI50 [48]: > 10 µM (inactive); GI50 [49]: 5.5 µM (inactive); GI50 [50]: 0.0381 µM (active); GI50 [51]: > 10 µM (inactive); GI50 [52]: < 0.01 µM (active); GI50 [53]: > 10 µM (inactive); GI50 [54]: 9.42 µM (inactive); GI50 [55]: > 10 µM (inactive); GI50 [56]: > 10 µM (inactive); GI50 [57]: 16.8 µM (inactive); GI50 [58]: 0.0339 µM (active); GI50 [59]: 0.0258 µM (active)

O[C@H]1[C@H](O)[C@@H](Cn2nnc(-c3ccccc3)c2-c2ccccc2)OCO[C@@H]1Cn1nnc(-c2ccccc2)c1-c1ccccc1 was tested. Which GI50 [1] did it give?
The GI50 was 2.88 µM (inactive).

What about the GI50 [2] of the same compound?
The GI50 was 3.63 µM (inactive).

What about the GI50 [3] of the same compound?
Its GI50 is 7.82 µM (inactive).

And the GI50 [4]?
Its GI50 is 3.38 µM (inactive).

What about the GI50 [5] of the same compound?
The GI50 was 4.19 µM (inactive).

What about the GI50 [6] of the same compound?
Its GI50 is 5.14 µM (inactive).

And the GI50 [7]?
Its GI50 is 6.18 µM (inactive).

What about the GI50 [8] of the same compound?
The GI50 was 2.32 µM (inactive).

What about the GI50 [9] of the same compound?
Its GI50 is 7.24 µM (inactive).

What about the GI50 [10] of the same compound?
Its GI50 is 10.5 µM (inactive).

And the GI50 [11]?
The GI50 was 3.84 µM (inactive).

And the GI50 [12]?
Its GI50 is 3.78 µM (inactive).

What about the GI50 [13] of the same compound?
The GI50 was 13.1 µM (inactive).

And the GI50 [14]?
The GI50 was 2.24 µM (inactive).

And the GI50 [15]?
Its GI50 is 6.47 µM (inactive).

What about the GI50 [16] of the same compound?
Its GI50 is 4.01 µM (inactive).

And the GI50 [17]?
Its GI50 is 5.92 µM (inactive).

What about the GI50 [18] of the same compound?
Its GI50 is 3.67 µM (inactive).

What about the GI50 [19] of the same compound?
Its GI50 is 3.73 µM (inactive).

And the GI50 [20]?
Its GI50 is 8.89 µM (inactive).

And the GI50 [21]?
The GI50 was 2.32 µM (inactive).

What about the GI50 [22] of the same compound?
The GI50 was 2.96 µM (inactive).

What about the GI50 [23] of the same compound?
The GI50 was 2.7 µM (inactive).

What about the GI50 [24] of the same compound?
Its GI50 is 4.32 µM (inactive).

What about the GI50 [25] of the same compound?
The GI50 was 2.36 µM (inactive).

What about the GI50 [26] of the same compound?
The GI50 was 3.15 µM (inactive).

What about the GI50 [27] of the same compound?
Its GI50 is 3.37 µM (inactive).

What about the GI50 [28] of the same compound?
The GI50 was 4.32 µM (inactive).

And the GI50 [29]?
The GI50 was 9.42 µM (inactive).

And the GI50 [30]?
The GI50 was 4.99 µM (inactive).

And the GI50 [31]?
The GI50 was 4.85 µM (inactive).

What about the GI50 [32] of the same compound?
The GI50 was 3.16 µM (inactive).

What about the GI50 [33] of the same compound?
Its GI50 is 3.74 µM (inactive).

What about the GI50 [34] of the same compound?
The GI50 was 5.04 µM (inactive).

And the GI50 [35]?
The GI50 was 6.47 µM (inactive).

And the GI50 [36]?
Its GI50 is 5.73 µM (inactive).

What about the GI50 [37] of the same compound?
The GI50 was 6.47 µM (inactive).

What about the GI50 [38] of the same compound?
Its GI50 is 2.99 µM (inactive).

And the GI50 [39]?
Its GI50 is 3.11 µM (inactive).

And the GI50 [40]?
The GI50 was 3.1 µM.

And the GI50 [41]?
The GI50 was 3.24 µM (inactive).

What about the GI50 [42] of the same compound?
The GI50 was 5.9 µM (inactive).

And the GI50 [43]?
The GI50 was 6.85 µM (inactive).

And the GI50 [44]?
The GI50 was 2.68 µM (inactive).

What about the GI50 [45] of the same compound?
Its GI50 is 2.83 µM (inactive).

And the GI50 [46]?
Its GI50 is 3.53 µM (inactive).

What about the GI50 [47] of the same compound?
The GI50 was 2.04 µM (inactive).

What about the GI50 [48] of the same compound?
Its GI50 is 3.88 µM (inactive).

And the GI50 [49]?
Its GI50 is 2.97 µM (inactive).

What about the GI50 [50] of the same compound?
Its GI50 is 3.63 µM (inactive).

And the GI50 [51]?
Its GI50 is 5.31 µM (inactive).

And the GI50 [52]?
The GI50 was 4.01 µM (inactive).

And the GI50 [53]?
The GI50 was 7.98 µM (inactive).

What about the GI50 [54] of the same compound?
The GI50 was 5.31 µM (inactive).

What about the GI50 [55] of the same compound?
Its GI50 is 3.65 µM (inactive).

What about the GI50 [56] of the same compound?
Its GI50 is 2.26 µM (inactive).

And the GI50 [57]?
The GI50 was 2.58 µM (inactive).

And the GI50 [58]?
Its GI50 is 5.22 µM (inactive).

What about the GI50 [59] of the same compound?
Its GI50 is 7.4 µM (inactive).
